Measured values taken from ChEMBL document CHEMBL2074018, “Digoxin up-regulates multidrug resistance transporter (MDR1) mRNA and simultaneously down-regulates steroid xenobiotic receptor mRNA” (Biochem Biophys Res Commun, 2003).

Molecular target: ATP-dependent translocase ABCB1 (Homo sapiens, UniProt P08183)
Experiment: TP_TRANSPORTER: up-regulation of MDR1 mRNA in Caco-2 cells
Type: functional, cell-based

Chain of ATP-dependent translocase ABCB1 (P08183 whole entry): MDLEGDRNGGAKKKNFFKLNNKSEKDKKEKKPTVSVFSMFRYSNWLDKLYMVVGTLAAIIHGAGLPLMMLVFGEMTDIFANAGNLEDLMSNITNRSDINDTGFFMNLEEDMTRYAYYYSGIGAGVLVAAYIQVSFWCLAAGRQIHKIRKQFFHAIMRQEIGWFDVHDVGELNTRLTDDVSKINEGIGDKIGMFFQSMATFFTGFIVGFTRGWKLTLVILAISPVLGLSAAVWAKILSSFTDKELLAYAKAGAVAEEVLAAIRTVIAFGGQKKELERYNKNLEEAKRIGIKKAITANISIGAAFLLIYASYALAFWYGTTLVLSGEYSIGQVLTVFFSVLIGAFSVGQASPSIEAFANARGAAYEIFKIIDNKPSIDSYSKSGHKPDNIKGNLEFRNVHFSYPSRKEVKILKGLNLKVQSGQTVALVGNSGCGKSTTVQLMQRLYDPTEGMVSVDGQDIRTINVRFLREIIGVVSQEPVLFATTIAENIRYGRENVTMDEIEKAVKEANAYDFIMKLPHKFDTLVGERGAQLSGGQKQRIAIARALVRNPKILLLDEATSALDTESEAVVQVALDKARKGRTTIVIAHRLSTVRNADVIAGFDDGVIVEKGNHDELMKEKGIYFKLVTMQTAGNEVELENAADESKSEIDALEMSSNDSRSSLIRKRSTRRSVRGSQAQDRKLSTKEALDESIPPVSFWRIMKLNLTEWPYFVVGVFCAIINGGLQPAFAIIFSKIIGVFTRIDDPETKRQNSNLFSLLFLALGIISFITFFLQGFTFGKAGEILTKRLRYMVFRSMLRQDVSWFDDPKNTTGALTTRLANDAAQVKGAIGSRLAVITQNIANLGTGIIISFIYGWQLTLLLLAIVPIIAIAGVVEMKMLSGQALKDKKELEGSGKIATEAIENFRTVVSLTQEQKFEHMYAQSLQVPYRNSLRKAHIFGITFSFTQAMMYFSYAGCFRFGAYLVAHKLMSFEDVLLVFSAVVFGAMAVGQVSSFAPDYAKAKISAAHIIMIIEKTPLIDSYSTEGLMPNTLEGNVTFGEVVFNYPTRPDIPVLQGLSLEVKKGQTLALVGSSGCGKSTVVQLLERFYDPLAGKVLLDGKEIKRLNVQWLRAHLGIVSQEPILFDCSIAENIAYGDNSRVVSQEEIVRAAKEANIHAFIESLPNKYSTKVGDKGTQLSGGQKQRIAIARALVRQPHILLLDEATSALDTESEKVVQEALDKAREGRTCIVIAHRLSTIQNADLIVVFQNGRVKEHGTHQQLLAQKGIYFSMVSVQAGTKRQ

Activity: inducer [+]
SMILES: C[C@H]1O[C@@H](O[C@H]2[C@@H](O)C[C@H](O[C@H]3[C@@H](O)C[C@H](O[C@H]4CC[C@@]5(C)[C@H](CC[C@@H]6[C@@H]5C[C@@H](O)[C@]5(C)[C@@H](C7=CC(=O)OC7)CC[C@]65O)C4)O[C@@H]3C)O[C@@H]2C)C[C@H](O)[C@@H]1O [DIGOXIN]
